# Test results from US20040171566A1, “Antisense modulation of p38 mitogen activated protein kinase expression” (priority 1999, published 2004).
# e = 2'-O-(2-methoxyethyl) (MOE); d = 2'-deoxy (DNA)
# Experiments:
# Type in all cases: cell-based
# [1] = tested on: human p38β mRNA; test: Inhibition of human p38β mRNA expression in HUVEC cells, Northern blot
# Description: The human Jurkat T-cell line (American Type Culture Collection, Manassas, Va.) was maintained in RPMI 1640 growth media supplemented with 10% fetal bovine serum (FBS; Hyclone, Logan, Utah). HUVEC cells (Clonetics, San Diego, Calif.) were cultivated in endothelial basal media supplemented with 10% FBS (Hyclone, Logan, Utah).
# HUVEC cells were allowed to reach 75% confluency prior to use. The cells were washed twice with warm (37° C.) OPTI-MEM™ (Life Technologies). The cells were incubated in the presence of the appropriate culture medium, without the growth factors added, and the oligonucleotide formulated in LIPOFECTIN7 (Life Technologies), a 1:1 (w/w) liposome formulation of the cationic lipid N-[1-(2,3-dioleyloxy)propyl]-n,n,n-trimethylammonium chloride (DOTMA), and dioleoyl phosphotidylethanolamine (DOPE) in membrane filtered water. HUVEC cells were treated with 100 nM oligonucleotide in 10 μg/ml LIPOFECTIN7. Treatment was for four hours.
# Total mRNA was isolated using the RNEASY7 Mini Kit (Qiagen, Valencia, Calif.; similar kits from other manufacturers may also be used), separated on a 1% agarose gel, transferred to HYBOND™-N+ membrane (Amersham Pharmacia Biotech, Piscataway, N.J.), a positively charged nylon membrane, and probed. p38 MAPK probes were made using the Prime-A-Gene7 kit (Promega Corporation, Madison, Wis.), a random primer labeling kit, using mouse p38α or p38β cDNA as a template. A glyceraldehyde 3-phosphate dehydrogenase (G3PDH) probe was purchased from Clontech (Palo Alto, Calif.), Catalog Number 9805-1. The fragments were purified from low-melting temperature agarose, as described in Maniatis, T., et al., Molecular Cloning: A Laboratory Manual, 1989. The G3PDH probe was labeled with REDIVUE™ ^32P-dCTP (Amersham Pharmacia Biotech, Piscataway, N.J.) and Strip-EZ labelling kit (Ambion, Austin, Tex.). mRNA was quantitated by a PhosphoImager (Molecular Dynamics, Sunnyvale, Calif.).
# Every oligonucleotide tested gave at least 50% inhibition.
# Oligonucleotides 17893 (SEQ ID NO. 27), 17899 (SEQ ID NO:33), 17904 (SEQ ID NO. 38), and 17907 (SEQ ID NO. 41) were chosen for dose response studies. HUVEC cells were cultured and treated as described in Example 2 except that the oligonucleotide concentration was varied as shown in Table 6. The Lipofectin7/Oligo ratio was maintained at 3 μg Lipofectin7/100 nM oligo, per ml. mRNA was measured by Northern blot as described in Example 2.
# [2] = tested on: rat p38α mRNA; test: Rat p38α mRNA levels in NR-8383 cells, quantitative real-time PCR; details: 300 nM oligonucleotide with FuGENE 6, 24 hours, mRNA by quantitative real-time PCR, average of two experiments
# [3] = tested on: mouse p38α mRNA; test: Mouse p38α mRNA levels in bEND.3 cells, quantitative real-time PCR; parameters: % Inhib. mouse p38α: concentration or dose not given beside the values; details: bEND.3 cells, mRNA by quantitative real-time PCR, average of two experiments
# Method in brief: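 Mouse bEND.3 cells, antisense oligonucleotide-treated; p38α mRNA measured by one-step real-time RT-PCR (RT 30 min at 48 °C, then 40 cycles) with a FAM/TAMRA probe. Levels normalized to GAPDH or RiboGreen total RNA, and percent inhibition derived from standard curves of untreated-control mRNA.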
# [4] = 100 nM oligonucleotide in 10 μg/ml LIPOFECTIN, four hours, Northern blot
Substance,"% mRNA EXPRESSION [1, 4]","% mRNA Inhibition [1, 4]",% Inhib. rat p38α [2],% Inhib. mouse p38α [3],also measured
CCTACACATGGCAAGCACAT (chemistry not fully specified) [ISIS 17907],8%,92%,,,% mRNA EXPRESSION ([1]; dose 10 nM): 37%; % mRNA Inhibition ([1]; dose 10 nM): 63%; % mRNA EXPRESSION ([1]; dose 25 nM): 22%; % mRNA Inhibition ([1]; dose 25 nM): 78%; % mRNA EXPRESSION ([1]; dose 50 nM): 18%; % mRNA Inhibition ([1]; dose 50 nM): 72%; % mRNA EXPRESSION ([1]; dose 100 nM): 18%; % mRNA Inhibition ([1]; dose 100 nM): 72%
CGACATGTCCGGAGCAGAAT (chemistry not fully specified) [ISIS 17891],22%,78%,,,
CCGAACAGACGGAGCCGTAT (chemistry not fully specified) [ISIS 17894],13%,87%,,,
TTCAGCTCCTGCCGGTAGAA (chemistry not fully specified) [ISIS 17892],10%,90%,,,
AACGTGCTCGTCAAGTGCCA (chemistry not fully specified) [ISIS 17898],49%,51%,,,
GCCAGTGCCTCAGGTGCACT [ISIS 17902],49%,51%,,,
AACGCTCTCATCATATGGCT (chemistry not fully specified) [ISIS 17903],11%,89%,,,
ACACATGTTTGTGCATGCAT (antisense; chemistry not fully specified) [ISIS 17906],22%,78%,,,
ACTTGACGATGTTGTTCAGG (antisense; chemistry not fully specified) [ISIS 17897],25%,75%,,,
CAGCACCTCACTGCTCAATC (chemistry not fully specified) [ISIS 17904],9%,91%,,,% mRNA EXPRESSION ([1]; dose 10 nM): 31%; % mRNA Inhibition ([1]; dose 10 nM): 69%; % mRNA EXPRESSION ([1]; dose 25 nM): 21%; % mRNA Inhibition ([1]; dose 25 nM): 79%; % mRNA EXPRESSION ([1]; dose 50 nM): 17%; % mRNA Inhibition ([1]; dose 50 nM): 83%; % mRNA EXPRESSION ([1]; dose 100 nM): 19%; % mRNA Inhibition ([1]; dose 100 nM): 81%
ACTGTTTGGTTGTAATGCAT (antisense; chemistry not fully specified) [ISIS 17900],40%,60%,,,
GCGTGAAGACGTCCAGAAGC (chemistry not fully specified) [ISIS 17896],24%,76%,,,
TCCAGGCTGAGCAGCTCTAA (chemistry not fully specified) [ISIS 17908],17%,83%,,,
"320150 (antisense GGATTCCTACAACATACAAA; sugars from the 5' end e5 d10 e5, all phosphorothioate, methylation of C not given here) [compound 320150]",,,62%,82%,
AGTGCACGCTCATCCACACG (chemistry not fully specified) [ISIS 17909],13%,87%,,,
ATGATGCGCTTCAGCTGGTC (chemistry not fully specified) [ISIS 17901],15%,85%,,,

Substance,"% mRNA EXPRESSION [1, 4]","% mRNA Inhibition [1, 4]",% Inhib. rat p38α [2],% Inhib. mouse p38α [3],also measured
"320165 (antisense TGCCTCATGGCTTGGCATCC; sugars from the 5' end e5 d10 e5, all phosphorothioate, methylation of C not given here) [compound 320165]",,,53%,81%,
"320108 (antisense AGATGGGTCACCAGGTACAC; sugars from the 5' end e5 d10 e5, all phosphorothioate, methylation of C not given here) [compound 320108]",,,57%,61%,
"320164 (antisense CTTGGCATCCTGTTAATGAG; sugars from the 5' end e5 d10 e5, all phosphorothioate, methylation of C not given here) [compound 320164]",,,73%,80%,
"320114 (antisense CTTAAAATGAGCTTCAACTG; sugars from the 5' end e5 d10 e5, all phosphorothioate, methylation of C not given here) [compound 320114]",,,60%,71%,
"320166 (antisense ACTGAATGTAGTTTCTTGCC; sugars from the 5' end e5 d10 e5, all phosphorothioate, methylation of C not given here) [compound 320166]",,,35%,53%,
"320122 (antisense ATTTGCGAAGTTCATCTTCG; sugars from the 5' end e5 d10 e5, all phosphorothioate, methylation of C not given here) [compound 320122]",,,48%,73%,
"320104 (antisense TCAAAAGCAGCACACACCGA; sugars from the 5' end e5 d10 e5, all phosphorothioate, methylation of C not given here) [compound 320104]",,,42%,82%,
"320110 (antisense TCATCAGTGTGCCGAGCCAG; sugars from the 5' end e5 d10 e5, all phosphorothioate, methylation of C not given here) [compound 320110]",,,54%,87%,
"320113 (antisense ATCAATATGGTCTGTACCAG; sugars from the 5' end e5 d10 e5, all phosphorothioate, methylation of C not given here) [compound 320113]",,,9%,35%,
"320156 (antisense GGAATTGGCTTTACACTTTC; sugars from the 5' end e5 d10 e5, all phosphorothioate, methylation of C not given here) [compound 320156]",,,64%,91%,
"320129 (antisense CATTTCTTCTTGGTCAAGGG; sugars from the 5' end e5 d10 e5, all phosphorothioate, methylation of C not given here) [compound 320129]",,,65%,69%,
"101755 (antisense CATCATCAGGGTCGTGGTAC; sugars from the 5' end e5 d10 e5, all phosphorothioate, methylation of C not given here) [compound 101755]",,,74%,84%,
"320159 (antisense TCTGACATCCTATGGCATAC; sugars from the 5' end e5 d10 e5, all phosphorothioate, methylation of C not given here) [compound 320159]",,,69%,94%,
"320106 (antisense AACGGTCTCGACAGCTTCTT; sugars from the 5' end e5 d10 e5, all phosphorothioate, methylation of C not given here) [compound 320106]",,,67%,91%,
"320105 (antisense CCCGTCTTTGTATCAAAAGC; sugars from the 5' end e5 d10 e5, all phosphorothioate, methylation of C not given here) [compound 320105]",,,59%,89%,
"320157 (antisense CGTCCAACACTGGAATTGGC; sugars from the 5' end e5 d10 e5, all phosphorothioate, methylation of C not given here) [compound 320157]",,,71%,96%,
